Where two headings read alike, the source gives them in different places.

The target in one series is T1, hGIPR (Homo sapiens, UniProt P48546).
T1 construct: expressed in transfected cells; host or cells: CHO CRE-luciferase reporter cells
T1 sequence (P48546 22-466): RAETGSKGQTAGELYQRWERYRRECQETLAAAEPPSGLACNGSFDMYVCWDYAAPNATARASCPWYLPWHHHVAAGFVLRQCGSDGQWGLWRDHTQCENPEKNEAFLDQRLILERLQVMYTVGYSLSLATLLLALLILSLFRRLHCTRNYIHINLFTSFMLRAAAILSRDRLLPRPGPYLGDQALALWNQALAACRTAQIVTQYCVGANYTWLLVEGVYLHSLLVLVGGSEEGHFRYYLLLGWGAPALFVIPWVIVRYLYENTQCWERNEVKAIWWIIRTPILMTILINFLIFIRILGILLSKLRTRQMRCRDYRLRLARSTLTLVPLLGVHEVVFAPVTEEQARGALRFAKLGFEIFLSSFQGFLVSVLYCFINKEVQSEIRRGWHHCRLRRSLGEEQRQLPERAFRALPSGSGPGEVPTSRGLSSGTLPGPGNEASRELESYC
Briefly: hGIPR CreLuc assay in 0.5% and 100% plasma (CHO CRE-luciferase reporter cells). The format is cell-based.

The nature of series [1]: Solubility in 0.1 M phosphate buffer at pH 7. The format is physicochemical. The note with it: 0.1 M phosphate buffer at pH 7, 10 mg/mL final peptide concentration, shaking 2 hours at room temperature, peptides as TFA-salts; measured sample pH 6.5-7.0.
[2] abbreviates: 0.5% human plasma, read-out: hGIPR 0.5% hP.

As for `CC[C@H](C)[C@H](NC(=O)[C@H](CC(C)C)NC(=O)[C@H](Cc1c[nH]cn1)NC(=O)[C@H](CCCNC(=N)N)NC(=O)[C@@H](NC(=O)[C@H](Cc1ccccc1)NC(=O)[C@H](C)NC(=O)C(C)(C)NC(=O)[C@H](CCC(N)=O)NC(=O)[C@H](C)NC(=O)[C@H](CCC(N)=O)NC(=O)[C@H](CCCCN)NC(=O)[C@H](CCC(=O)O)NC(=O)[C@H](CC(C)C)NC(=O)C(C)(C)NC(=O)[C@@H](NC(=O)[C@H](CO)NC(=O)[C@H](CC(C)C)NC(=O)[C@H](CC(=O)O)NC(=O)[C@H](CO)NC(=O)[C@@H](NC(=O)[C@H](Cc1ccccc1)NC(=O)[C@@H](NC(=O)CNC(=O)[C@H](CCC(=O)O)NC(=O)C(C)(C)NC(=O)[C@@H](N)Cc1ccc(O)cc1)[C@@H](C)O)[C@@H](C)O)[C@@H](C)CC)C(C)C)C(=O)N[C@@H](CC(N)=O)C(=O)N[C@@H](CCCCNC(=O)CC[C@H](NC(=O)[C@@H](N)CCCCNC(=O)CC[C@H](NC(=O)CC[C@H](NC(=O)CC[C@H](NC(=O)CC[C@H](NC(=O)CC[C@H](NC(=O)CCCCCCCCCCCCCCCCCCC(=O)O)C(=O)O)C(=O)O)C(=O)O)C(=O)O)C(=O)O)C(=O)O)C(=O)NC(C)(C)C(=O)N[C@H](C(=O)N[C@@H](CCCNC(=N)N)C(=O)N[C@@H](CCC(N)=O)C(=O)N[C@@H](CCCNC(=N)N)C(=O)N[C@@H](Cc1ccc(O)cc1)C(N)=O)[C@@H](C)O` [Compound 60, Y-Aib-E-G-T-F-T-S-D-L-S-I-Aib-L-E-K-Q-A-Q-Aib-A-F-V-R-H-L-I-N-K(1,3)-Aib-T-R-Q-R-Y-NH2.C20DA-gGlu-gGlu-gGlu-gGlu-gGlu-eLys-gGlu(1,2)], the EC50 on hGIPR (hGIPR 0.5% hP (nM), 0.5% human plasma) was 0.3 nM; on hGIPR (hGIPR 100% hP (nM), 100% human plasma), 8 nM. Further, the solubility at 2 h in series [1] is 9600 µg/mL.

On to `CC[C@H](C)[C@H](NC(=O)[C@H](CC(C)C)NC(=O)[C@H](Cc1c[nH]cn1)NC(=O)[C@H](CCCNC(=N)N)NC(=O)[C@@H](NC(=O)[C@H](Cc1ccccc1)NC(=O)[C@H](C)NC(=O)[C@H](C)NC(=O)[C@H](CCC(N)=O)NC(=O)[C@H](C)NC(=O)[C@H](CCC(N)=O)NC(=O)[C@H](CCCCN)NC(=O)[C@H](CCC(=O)O)NC(=O)[C@H](CC(C)C)NC(=O)C(C)(C)NC(=O)[C@@H](NC(=O)[C@H](CO)NC(=O)[C@H](Cc1ccc(O)cc1)NC(=O)[C@H](CC(=O)O)NC(=O)[C@H](CO)NC(=O)[C@@H](NC(=O)[C@H](Cc1ccccc1)NC(=O)[C@@H](NC(=O)CNC(=O)[C@H](CCC(=O)O)NC(=O)C(C)(C)NC(=O)[C@@H](N)Cc1ccc(O)cc1)[C@@H](C)O)[C@@H](C)O)[C@@H](C)CC)C(C)C)C(=O)N[C@@H](CC(N)=O)C(=O)N[C@@H](CCCCNC(=O)[C@@H](N)CCCCNC(=O)CC[C@H](NC(=O)CC[C@H](NC(=O)CC[C@H](NC(=O)CC[C@H](NC(=O)CC[C@H](NC(=O)CC[C@H](NC(=O)CCCCCCCCCCCCCCCCC(=O)O)C(=O)O)C(=O)O)C(=O)O)C(=O)O)C(=O)O)C(=O)O)C(=O)NC(C)(C)C(=O)N[C@H](C(=O)N[C@@H](CCCNC(=N)N)C(=O)N[C@@H](CCC(N)=O)C(=O)N[C@@H](CCCNC(=N)N)C(=O)N[C@@H](Cc1ccc(O)cc1)C(N)=O)[C@@H](C)O` [Compound 61, Y-Aib-E-G-T-F-T-S-D-Y-S-I-Aib-L-E-K-Q-A-Q-A-A-F-V-R-H-L-I-N-K(1,3)-Aib-T-R-Q-R-Y-NH2.C18DA-gGlu-gGlu-gGlu-gGlu-gGlu-gGlu-eLys(1,2)], for which, at hGIPR (setting [2]), the EC50 came out at 0.4 nM. For the same molecule, the solubility at 2 h in series [1] was found to be 3700 µg/mL.

On to `CC[C@H](C)[C@H](NC(=O)[C@H](CC(C)C)NC(=O)[C@H](Cc1c[nH]cn1)NC(=O)[C@H](CCCNC(=N)N)NC(=O)[C@@H](NC(=O)[C@H](Cc1ccccc1)NC(=O)[C@H](C)NC(=O)C(C)(C)NC(=O)[C@H](CCC(N)=O)NC(=O)[C@H](C)NC(=O)[C@H](CCC(N)=O)NC(=O)[C@H](CC(C)C)NC(=O)[C@H](CCC(=O)O)NC(=O)[C@H](CC(C)C)NC(=O)C(C)(C)NC(=O)[C@@H](NC(=O)[C@H](CO)NC(=O)[C@H](Cc1ccc(O)cc1)NC(=O)[C@H](CC(=O)O)NC(=O)[C@H](CO)NC(=O)[C@@H](NC(=O)[C@H](Cc1ccccc1)NC(=O)[C@@H](NC(=O)CNC(=O)[C@H](CCC(=O)O)NC(=O)C(C)(C)NC(=O)[C@@H](N)Cc1ccc(O)cc1)[C@@H](C)O)[C@@H](C)O)[C@@H](C)CC)C(C)C)C(=O)N[C@@H](CC(N)=O)C(=O)N[C@@H](CCCCNC(=O)[C@@H](N)CCCCNC(=O)CC[C@H](NC(=O)CC[C@H](NC(=O)CC[C@H](NC(=O)CC[C@H](NC(=O)CC[C@H](NC(=O)CC[C@H](NC(=O)CCCCCCCCCCCCCCCCC(=O)O)C(=O)O)C(=O)O)C(=O)O)C(=O)O)C(=O)O)C(=O)O)C(=O)NC(C)(C)C(=O)N[C@H](C(=O)N[C@@H](CCCNC(=N)N)C(=O)N[C@@H](CCC(N)=O)C(=O)N[C@@H](CCCNC(=N)N)C(=O)N[C@@H](Cc1ccc(O)cc1)C(N)=O)[C@@H](C)O` [Compound 65, Y-Aib-E-G-T-F-T-S-D-Y-S-I-Aib-L-E-L-Q-A-Q-Aib-A-F-V-R-H-L-I-N-K(1,3)-Aib-T-R-Q-R-Y-NH2.C18DA-gGlu-gGlu-gGlu-gGlu-gGlu-gGlu-eLys(1,2)], for which the EC50 on hGIPR (setting [2]) is 0.7 nM. Besides, in series [1], the solubility at 2 h is 3900 µg/mL.

Take `CC[C@H](C)[C@H](NC(=O)[C@H](CC(C)C)NC(=O)[C@H](Cc1c[nH]cn1)NC(=O)[C@H](CCCNC(=N)N)NC(=O)[C@@H](NC(=O)[C@H](Cc1ccccc1)NC(=O)[C@H](C)NC(=O)C(C)(C)NC(=O)[C@H](CCC(N)=O)NC(=O)[C@H](C)NC(=O)[C@H](CCC(N)=O)NC(=O)[C@H](CCCCN)NC(=O)[C@H](CCC(=O)O)NC(=O)[C@H](CC(C)C)NC(=O)C(C)(C)NC(=O)[C@@H](NC(=O)[C@H](CO)NC(=O)[C@H](Cc1ccc(O)cc1)NC(=O)[C@H](CC(=O)O)NC(=O)[C@H](CO)NC(=O)[C@@H](NC(=O)[C@H](Cc1ccccc1)NC(=O)[C@@H](NC(=O)CNC(=O)[C@H](CCC(=O)O)NC(=O)C(C)(C)NC(=O)[C@@H](N)Cc1ccc(O)cc1)[C@@H](C)O)[C@@H](C)O)[C@@H](C)CC)C(C)C)C(=O)N[C@@H](CC(N)=O)C(=O)N[C@@H](CCCCNC(=O)[C@@H](N)CCCCNC(=O)CC[C@H](NC(=O)CC[C@H](NC(=O)CC[C@H](NC(=O)CC[C@H](NC(=O)CC[C@H](NC(=O)CC[C@H](NC(=O)CCCCCCCCCCCCCCCCC(=O)O)C(=O)O)C(=O)O)C(=O)O)C(=O)O)C(=O)O)C(=O)O)C(=O)N[C@H](C(=O)N[C@H](C(=O)N[C@@H](CCCNC(=N)N)C(=O)N[C@@H](CCC(N)=O)C(=O)N[C@@H](CCCNC(=N)N)C(=O)N[C@@H](Cc1ccc(O)cc1)C(N)=O)[C@@H](C)O)[C@@H](C)CC` [Compound 66, Y-Aib-E-G-T-F-T-S-D-Y-S-I-Aib-L-E-K-Q-A-Q-Aib-A-F-V-R-H-L-I-N-K(1,3)-I-T-R-Q-R-Y-NH2.C18DA-gGlu-gGlu-gGlu-gGlu-gGlu-gGlu-eLys(1,2)]: the EC50 at hGIPR (setting [2]) came to 0.2 nM. In addition, the solubility at 2 h in series [1] came out at 5000 µg/mL.

Source of the values: patent publication US20250382344A1, “Soluble GLP1/GIP/NPY2 Receptor Triple Agonists” (Boehringer Ingelheim International GmH, priority 2024, published 2025).
